These results are taken from patent publication US7232912B2, “Indazole compounds, pharmaceutical compositions, and methods for mediating or inhibiting cell proliferation” (Agouron Pharmaceuticals, Inc., priority 2000, dated 2007).

pKi: −log10 of the molar value.

Series [1] concerns the target CDK4/cyclin D3 (Homo sapiens, UniProt P11802). The experiment in a line: Inhibition of CDK4/Cyclin D Retinoblastoma Kinase Activity. The format is biochemical. Particulars: apparent Ki. In a few lines: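 Human CDK4/cyclin D3 (full-length or cyclin D3 1–264), insect-cell expressed, at 5 or 50 nM with His-tagged Rb 386–928 substrate, 25 μM ATP plus [32P/33P]ATP, pH 7.4, 2% DMSO, 30 °C for 20 min; tight binders used 5 nM enzyme for 60 min. Filter-captured phospho-Rb quantified by phosphorimager. Apparent Ki from competitive or tight-binding inhibition fits.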

Series [2] addresses T1, CDK2/cyclin A (Homo sapiens, UniProt P24941).
T1 construct: made in house; host or cells: CDK2: insect cells (baculovirus); cyclin A: E. coli
Put plainly: Inhibition of CDK2/Cyclin A Retinoblastoma Kinase Activity. The note with it: apparent Ki. The format is biochemical. Summed up:
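Baculovirus-expressed CDK2 complexed with proteolyzed cyclin A, at 150 nM or 5 nM, phosphorylating an Rb fragment with 25 µM [32/33P]ATP in HEPES pH 7.4, 2% DMSO. Reactions run 20 min at 30°C, EDTA-stopped, filter-captured; apparent Ki from competitive or tight-binding competitive fits.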

Series [3] deals with T2, human CHK1 (Homo sapiens, UniProt O14757).
T2 construct: C-terminally His-tagged full-length human CHK1 (FL-CHK1) was expressed using the baculovirus/insect cell system; made in house; host or cells: baculovirus/insect cells
T2 sequence (O14757 1-476): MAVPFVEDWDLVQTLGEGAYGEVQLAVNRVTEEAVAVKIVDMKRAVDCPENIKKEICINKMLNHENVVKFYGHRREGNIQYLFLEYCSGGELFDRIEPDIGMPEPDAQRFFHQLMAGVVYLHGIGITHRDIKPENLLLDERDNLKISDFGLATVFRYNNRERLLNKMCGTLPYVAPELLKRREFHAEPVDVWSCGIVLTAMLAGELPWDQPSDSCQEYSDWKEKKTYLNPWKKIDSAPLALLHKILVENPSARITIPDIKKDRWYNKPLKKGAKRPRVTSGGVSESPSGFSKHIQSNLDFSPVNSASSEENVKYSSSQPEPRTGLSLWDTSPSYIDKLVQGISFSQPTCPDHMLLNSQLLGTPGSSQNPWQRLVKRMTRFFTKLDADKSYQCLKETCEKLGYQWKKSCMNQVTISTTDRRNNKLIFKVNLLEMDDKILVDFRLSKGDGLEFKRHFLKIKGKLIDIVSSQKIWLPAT
The experiment in a line: CHK1 Assay (coupled spectrophotometric). The format is biochemical. An excerpt:
C-terminally His-tagged full-length human CHK1 (FL-CHK1) was expressed using the baculovirus/insect cell system. It contains 6 histidine residues (6×His-tag) at the C-terminus of the 476 amino acid human CHK1. The protein was purified by conventional chromatographic techniques.
The production of ADP from ATP that accompanies phosphoryl transfer to the synthetic substrate peptide Syntide-2 ([…]) was coupled to oxidation of NADH using phosphoenolpyruvate (PEP) through the actions of pyruvate kinase (PK) and lactic dehydrogenase (LDH). The oxidation of NADH was monitored by following the decrease of absorbance at 340 nm (ε340=6.22 cm^−1 mM^−1) using a HP8452 spectrophotometer. Typical reaction solutions contained: […]; 0.15 mM NADH; 28 units of LDH/ml; 16 units of PK/ml; 3 mM DTT; 0.125 mM Syntide-2; 0.15 mM ATP; 25 mM MgCl2 in 50 mM TRIS, pH 7.5; and 400 mM NaCl. Assays were initiated with 10 nM of FL-CHK1. Ki values were determined by measuring initial enzyme activity in the presence of varying concentrations of test compounds. The data were analyzed using Enzyme Kinetic and Kaleidagraph software.

CDK4/cyclin D3, sequence (P11802 2-303 limits assumed): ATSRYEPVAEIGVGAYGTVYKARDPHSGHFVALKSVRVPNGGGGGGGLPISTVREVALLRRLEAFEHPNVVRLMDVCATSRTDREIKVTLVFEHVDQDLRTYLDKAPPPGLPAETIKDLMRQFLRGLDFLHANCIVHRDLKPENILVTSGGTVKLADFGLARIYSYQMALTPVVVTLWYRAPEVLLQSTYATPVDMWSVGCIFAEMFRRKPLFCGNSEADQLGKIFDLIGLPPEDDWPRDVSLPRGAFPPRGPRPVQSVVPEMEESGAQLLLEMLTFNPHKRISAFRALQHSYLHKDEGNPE
CDK4/cyclin D3, sequence (P30281 1-264 limits assumed, further chain): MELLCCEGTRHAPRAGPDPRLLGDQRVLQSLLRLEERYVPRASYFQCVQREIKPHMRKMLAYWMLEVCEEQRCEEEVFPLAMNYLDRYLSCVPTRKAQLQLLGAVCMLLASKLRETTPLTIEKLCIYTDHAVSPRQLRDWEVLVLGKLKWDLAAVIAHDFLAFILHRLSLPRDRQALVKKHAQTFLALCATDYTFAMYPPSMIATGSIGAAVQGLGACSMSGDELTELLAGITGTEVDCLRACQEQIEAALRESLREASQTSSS

For orientation: pKi means −log10 of the Ki, conventionally taken in molar units. What is called inhibition is the percentage by which the read-out fell short of the control. What is called melting point is the temperature of the solid-liquid transition. Regarding `c1ccc(-c2ccc3[nH]nc(-c4nc5ccccc5[nH]4)c3c2)cc1` [Example 3, 3-(1H-Benzoimidazol-2-yl)-5-Phenyl-1H-indazole], the melting point lay in the range of 80 to 82 °C. Besides, in series [1], the pKi is 6.43. The pKi in series [2] is 6.62. In addition, in series [3], the inhibition at 20 µM is 75%.
